Like-named read-outs stand apart in the source and are kept apart here.
Assays:
[1] = target: T1, Beta Adrenergic 2 (Homo sapiens, UniProt P07550); test: R-SAT assay, Beta Adrenergic 2; type: cell-based
T1 construct: expressed in transfected cells; host or cells: NIH3T3
Experimental: (§1) The test compound of Formula III was screened according to a modification of the method described in U.S. Pat. No. 5,912,312. The method, herein referred to as Method 1, consists of the following:
(§2) Receptor Selection and Amplification (R-SAT) Assays.
(§3) R-SAT assays were performed with minor modifications from that previously described (6). Briefly, NIH3T3 cells were grown in tissue culture treated rollerbottles to 40-50% confluence. Cells were transfected for 12-16 hours with plasmid DNAs using superfect (Qiagen Inc.) as per manufacture's protocols. R-SAT's were generally performed with 10 μg/rollerbottle of receptor and 50 μg/rollerbottle of Beta-galactosidase plasmid DNA. All receptor and G-protein constructs used were in the PSI mammalian expression vector (Promega Inc.). The transfected cells were then trypsinized and frozen in DMEM containing 10% DMSO. Frozen cells were later thawed, plated at 10,000-40,000 cells per well of a 96 ½ area plate that contained drug. […] Media was then removed from the plates and marker gene activity was measured by the addition of the beta-galactosidase substrate ONPG (in PBS with 5% NP-40). The resulting colorimetric reaction was measured in a spectrophotometric plate reader (Titertek Inc.) at […].
(§4) EC50, IC50 and Ki are presented as the negative of the calculated potency in Molar.

[2] = tested on: male NSA mice; test: Locomotor activity in mice after i.v. injection; type: in vivo
Experimental: The test compound of Formula III was tested at 10 mg/kg, i.v. in male NSA mice. Locomotor activity was measured for 15 min following injection. The locomotor activity was decreased relative to sham injected animals. Within a few minutes into the session, the mice sat quietly in a corner of the chamber in a normal posture.
Following the initial experiment, a dose-response curves using 1, 3, and 10 mg/kg, i.v. were conducted. The effects of 10 mg/kg the test compound of Formula III were replicated.

[3] = target: T2, urotensin II receptor (Homo sapiens, UniProt Q9UKP6); test: R-SAT assay, Urotensin II receptor; type: cell-based
T2 construct: expressed in transfected cells; host or cells: NIH3T3
T2 sequence (Q9UKP6 1-389): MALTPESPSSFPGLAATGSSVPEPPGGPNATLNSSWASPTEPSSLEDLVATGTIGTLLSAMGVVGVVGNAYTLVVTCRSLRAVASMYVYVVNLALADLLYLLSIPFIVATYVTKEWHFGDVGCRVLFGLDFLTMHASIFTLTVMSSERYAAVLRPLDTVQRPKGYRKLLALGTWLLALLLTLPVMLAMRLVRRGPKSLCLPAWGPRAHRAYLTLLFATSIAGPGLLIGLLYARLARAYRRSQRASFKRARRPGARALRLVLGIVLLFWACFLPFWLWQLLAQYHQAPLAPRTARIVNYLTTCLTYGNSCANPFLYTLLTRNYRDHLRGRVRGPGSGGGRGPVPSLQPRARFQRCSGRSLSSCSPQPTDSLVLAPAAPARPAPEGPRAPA
Experimental: as §1, §2
R-SAT assays were performed with minor modifications from that previously described (6). Briefly, NIH3T3 cells were grown in tissue culture treated rollerbottles to 40-50% confluence. Cells were transfected for 12-16 hours with plasmid DNAs using superfect (Qiagen Inc.) as per manufacture's protocols. R-SAT's were generally performed with 10 μg/rollerbottle of receptor and 50 μg/rollerbottle of Beta-galactosidase plasmid DNA. All receptor and G-protein constructs used were in the PSI mammalian expression vector (Promega Inc.). The transfected cells were then trypsinized and frozen in DMEM containing 10% DMSO. Frozen cells were later thawed, plated at 10,000-40,000 cells per well of a 96 ½ area plate that contained drug. Cells were then grown in a humidified atmosphere with 5% ambient CO2 for five days. Media was then removed from the plates and marker gene activity was measured by the addition of the beta-galactosidase substrate ONPG (in PBS with 5% NP-40). The resulting colorimetric reaction was measured in a spectrophotometric plate reader (Titertek Inc.) at […].
as §4

[4] = target: T3, Serotonin 5HT-1A (Homo sapiens, UniProt P08908); test: R-SAT assay, Serotonin 5HT-1A; type: cell-based; settings: competitive antagonist mode; percent maximal inhibition relative to control standard compound
T3 construct: expressed in transfected cells; host or cells: NIH3T3
T3 sequence (P08908 whole entry): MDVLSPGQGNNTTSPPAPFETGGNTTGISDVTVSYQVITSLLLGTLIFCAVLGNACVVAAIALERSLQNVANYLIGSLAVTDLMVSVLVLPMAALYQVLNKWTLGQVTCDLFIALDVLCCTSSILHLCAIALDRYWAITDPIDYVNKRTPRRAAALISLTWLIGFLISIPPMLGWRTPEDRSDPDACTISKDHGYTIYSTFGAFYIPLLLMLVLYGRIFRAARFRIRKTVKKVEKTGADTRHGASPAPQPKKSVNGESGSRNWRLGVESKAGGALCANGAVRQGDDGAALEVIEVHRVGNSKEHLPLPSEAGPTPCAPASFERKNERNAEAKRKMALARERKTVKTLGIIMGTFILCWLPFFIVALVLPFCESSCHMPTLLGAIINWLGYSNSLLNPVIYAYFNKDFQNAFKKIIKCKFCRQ
Experimental: as §1, §2, §3, §4

[5] = target: T4, Dopamine D5 (Homo sapiens, UniProt P21918); test: R-SAT assay, Dopamine D5; type: cell-based
T4 construct: expressed in transfected cells; host or cells: NIH3T3
T4 sequence (P21918 whole entry): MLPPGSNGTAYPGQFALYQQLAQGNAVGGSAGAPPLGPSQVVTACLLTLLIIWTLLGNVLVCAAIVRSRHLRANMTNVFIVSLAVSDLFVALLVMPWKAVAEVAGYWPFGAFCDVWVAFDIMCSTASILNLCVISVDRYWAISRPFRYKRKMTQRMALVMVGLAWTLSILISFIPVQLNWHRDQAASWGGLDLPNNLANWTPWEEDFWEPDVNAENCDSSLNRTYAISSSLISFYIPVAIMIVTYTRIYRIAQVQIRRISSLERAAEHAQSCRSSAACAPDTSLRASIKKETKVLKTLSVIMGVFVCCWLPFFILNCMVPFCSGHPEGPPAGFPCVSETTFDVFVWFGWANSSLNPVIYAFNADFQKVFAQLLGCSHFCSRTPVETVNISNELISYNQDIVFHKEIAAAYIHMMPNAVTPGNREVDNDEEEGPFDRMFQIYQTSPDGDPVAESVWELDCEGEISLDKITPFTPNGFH
Experimental: as §1, §2, §3, §4

[6] = target: T5, Serotonin 5HT7 (Homo sapiens, UniProt P34969); test: R-SAT assay, Serotonin 5HT7; type: cell-based; settings: percent maximal activation relative to control compound
T5 construct: expressed in transfected cells; host or cells: NIH3T3
T5 sequence (P34969 whole entry): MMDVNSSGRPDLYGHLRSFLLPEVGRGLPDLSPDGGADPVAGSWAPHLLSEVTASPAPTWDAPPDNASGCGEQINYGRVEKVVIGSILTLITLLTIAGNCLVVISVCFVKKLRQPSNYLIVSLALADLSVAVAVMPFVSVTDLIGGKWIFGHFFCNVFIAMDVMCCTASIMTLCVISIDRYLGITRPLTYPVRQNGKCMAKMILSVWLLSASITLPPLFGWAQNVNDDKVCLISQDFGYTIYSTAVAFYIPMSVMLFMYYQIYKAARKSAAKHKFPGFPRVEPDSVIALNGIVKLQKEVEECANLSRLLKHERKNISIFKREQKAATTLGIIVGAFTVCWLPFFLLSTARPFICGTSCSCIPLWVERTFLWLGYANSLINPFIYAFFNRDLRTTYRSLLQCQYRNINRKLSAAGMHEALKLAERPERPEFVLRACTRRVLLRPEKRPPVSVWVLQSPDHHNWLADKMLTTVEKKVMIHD
Experimental: as §1, §2, §3, §4

[7] = target: T6, Dopamine D1 (Homo sapiens, UniProt P21728); test: R-SAT assay, Dopamine D1; type: cell-based
T6 construct: expressed in transfected cells; host or cells: NIH3T3
T6 sequence (P21728 whole entry): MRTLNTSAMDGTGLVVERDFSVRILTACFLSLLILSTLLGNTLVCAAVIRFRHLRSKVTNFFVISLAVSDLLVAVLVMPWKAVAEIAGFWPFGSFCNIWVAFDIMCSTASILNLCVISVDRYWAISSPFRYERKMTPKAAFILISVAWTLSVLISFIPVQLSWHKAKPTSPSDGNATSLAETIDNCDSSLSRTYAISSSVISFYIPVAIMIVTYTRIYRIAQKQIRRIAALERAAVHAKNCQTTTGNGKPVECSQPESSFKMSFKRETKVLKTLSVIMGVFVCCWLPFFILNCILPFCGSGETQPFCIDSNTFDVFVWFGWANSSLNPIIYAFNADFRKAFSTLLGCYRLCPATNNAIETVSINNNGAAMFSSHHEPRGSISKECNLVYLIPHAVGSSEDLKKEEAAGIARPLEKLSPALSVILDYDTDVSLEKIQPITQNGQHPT
Experimental: as §1, §2, §3, §4

[8] = target: T7, CRF2b (Homo sapiens, UniProt Q13324); test: R-SAT assay, CRF2b; type: cell-based; settings: percent maximal activation relative to control compound
T7 construct: expressed in transfected cells; host or cells: NIH3T3
T7 sequence (Q13324 1-438 isoform Q13324-2): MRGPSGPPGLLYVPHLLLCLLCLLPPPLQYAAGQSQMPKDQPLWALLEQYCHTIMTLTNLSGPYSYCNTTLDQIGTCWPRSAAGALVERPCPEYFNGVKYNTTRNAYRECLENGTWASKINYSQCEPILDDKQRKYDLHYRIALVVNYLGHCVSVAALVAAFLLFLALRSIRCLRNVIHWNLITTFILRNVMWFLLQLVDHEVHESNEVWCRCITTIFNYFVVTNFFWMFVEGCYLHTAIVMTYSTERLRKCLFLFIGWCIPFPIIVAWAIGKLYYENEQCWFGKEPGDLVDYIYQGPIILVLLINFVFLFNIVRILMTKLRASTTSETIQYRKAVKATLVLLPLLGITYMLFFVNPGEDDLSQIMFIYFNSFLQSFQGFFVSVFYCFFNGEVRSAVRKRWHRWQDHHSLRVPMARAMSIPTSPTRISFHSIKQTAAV
Experimental: as §1, §2, §3, §4

[9] = competitive antagonist mode, percent maximal inhibition relative to control standard compound
[10] = percent maximal activation relative to control compound

T1 sequence (P07550 whole entry): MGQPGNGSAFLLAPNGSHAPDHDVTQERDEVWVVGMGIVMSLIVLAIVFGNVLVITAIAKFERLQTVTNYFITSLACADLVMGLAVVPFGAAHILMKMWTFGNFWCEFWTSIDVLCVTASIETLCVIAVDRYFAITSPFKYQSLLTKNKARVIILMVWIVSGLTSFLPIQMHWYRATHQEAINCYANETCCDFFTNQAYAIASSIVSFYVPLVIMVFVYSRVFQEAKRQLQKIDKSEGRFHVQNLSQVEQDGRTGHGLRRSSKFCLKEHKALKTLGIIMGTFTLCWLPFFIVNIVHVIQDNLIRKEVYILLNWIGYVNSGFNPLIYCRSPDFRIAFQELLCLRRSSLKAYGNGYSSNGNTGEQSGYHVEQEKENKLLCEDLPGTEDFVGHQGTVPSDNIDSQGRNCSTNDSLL

CN(C)CCC1(c2ccc(Cl)cc2)Cc2ccccc2C(=O)O1 (stereo not shown) [Formula III]
Competitive Antagonist % Inh [1, 9]: 0% | Agonist % Eff [1, 10]: 0% | locomotor activity ([2]; 10 mg/kg i.v., male NSA mice, 15 min following injection, relative to sham injected animals): decreased | behavioural observation (responsiveness, appearance) ([2]; 10 mg/kg i.v., male NSA mice, during the session): responsive to sound and touch and otherwise appeared normal | effects on locomotor activity in dose-response experiment ([2]; dose-response 1, 3 and 10 mg/kg i.v., result stated for 10 mg/kg): replicated | EC50 ([3]; agonist mode, negative of the calculated potency in Molar, read-out: Agonist EC50 (converted)): 100 nM | maximal biological response ([3]; compared with the response evoked by the urotensin II peptide): equal to or greater than the response evoked by the urotensin II peptide | EC50 ([3]; functional potency, Example 1 (Method 1), read-out: EC50 for the urotensin II receptor): 200 nM | Agonist % Eff [3, 10]: 132% | Competitive Antagonist % Inh [4]: 0% | Competitive Antagonist % Inh [5, 9]: 0% | Agonist % Eff [5, 10]: 0% | Agonist % Eff [6]: 0% | Competitive Antagonist % Inh [7, 9]: 0% | Agonist % Eff [7, 10]: 0% | Agonist % Eff [8]: 0%

— patent publication US20060058374A1, “Urotensin II receptor agents” (priority 2002, published 2006)
